Literature values in patent EP0433909A2, “Formulation” (CIBA-GEIGY AG, priority 1989, dated 1991).

Details: for solubilities: in water, K. Wellinga et al., J. Agr. Food Chem. Vol 21, No.3 (1973), p.350

| Structure (SMILES) | solubilities [ppm] | solubility in water (The Merck Index, 9th Ed. (1976), p. 416) |
| --- | --- | --- |
| O=C(NC(=O)c1c(Cl)cccc1Cl)Nc1ccc(Cl)c(Cl)c1 [1-(2,6-dichlorobenzoyl)-3-(3,4-dichlorophenyl)-urea] | ≤ 1 | – |
| O=C(NC(=O)c1c(Cl)cccc1Cl)Nc1ccc(Cl)cc1 [1-(4-chlorophenyl)-3-(2,6-dichlorobenzoyl)-urea] | ≤ 1 | – |
| O=C(NC(=O)c1c(F)cccc1F)Nc1ccc(Cl)cc1 [1-(4-chlorophenyl)-3-(2,6-difluorobenzoyl)urea] | – | about 0.3 ppm |
